Values belong to the molecule of their own block, whether it stands above or below them. Square brackets hold non-standard residues; d marks the D form. Peptide text beside a SMILES is read from it. * marks the point of attachment. Cbz = O=C(OCc1ccccc1)*
Columns and labels:
[1] = test system: U266, KMS-11, NCI-H929, ARH-77, JJN-3, KMS-12, KMS-18, KMS-27 cells; test: [3H]thymidine incorporation assay, panel of 8 sensitive multiple myeloma cell lines; format: cell-based, human; conditions: treatment for 144 hrs; read-out: IC50s ranging over the sensitive multiple myeloma cell lines
Procedure: Cultures of multiple myeloma cells and treatments with Z-DTPs were carried out as described in Example 8 (see below). The effects of Z-DTPs on the survival/proliferation of multiple myeloma cells were evaluated by the use of [^3H]thymidine) incorporation assays, performed as also described in Example 8. The amount of cell proliferation measured with each of the Z-DTPs' concentrations used and with the untreated cultures (i.e. cultures incubated with medium alone), was expressed as counts per minute (c.p.m.)—which directly correlate with the extent of cell proliferation. All experiments were performed in triplicate.

Solubility = format: physicochemical; conditions: result in words
Gadd45β/MKK7 complex = biological target: T1, Gadd45β/MKK7 complex (Homo sapiens, UniProt O14733, S271D/T275D); test: Surface Plasmon Resonance, preformed Gadd45β/MKK7KD complex; format: binding
T1 construct: His6; made in house; host or cells: E. coli (MKK7KD)
T1 sequence (O14733 101-405 isoform O14733-3 S287D/T291D limits assumed): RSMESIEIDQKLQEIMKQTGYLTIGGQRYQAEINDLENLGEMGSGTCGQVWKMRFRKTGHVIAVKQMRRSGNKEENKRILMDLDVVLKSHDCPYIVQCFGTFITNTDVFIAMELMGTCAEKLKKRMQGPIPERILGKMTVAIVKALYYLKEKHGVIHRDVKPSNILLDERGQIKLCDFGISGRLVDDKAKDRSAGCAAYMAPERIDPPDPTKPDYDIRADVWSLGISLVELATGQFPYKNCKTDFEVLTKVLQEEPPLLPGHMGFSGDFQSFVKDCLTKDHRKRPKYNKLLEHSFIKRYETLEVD
Procedure: To determine how DTPs bind to the Gadd45 β/MKK7 complex, experiments were performed with a Biacore3000 SPR instrument (GE Healthcare, Milan, Italy), using 4-channels CM5 sensorchips (GE Healthcare, Milan, Italy). Full length human Gadd45β was prepared and purified as described in the reference by Tornatore L., et al. (2008). J Mol Biol; 378:97-111. […] The protein was purified to homogeneity by two subsequent steps of affinity chromatography (Ni-NTA support) and gel filtration (Superdex G75), and then characterized by SDS-PAGE, LC-MS to verify identity and purity, and by Circular Dichroism to assess folding.
MKK7KD was immobilized on the Biacore sensorchip via classical EDC/NHS coupling chemistry at pH 5 (protein pI, ˜9) at a flow rate of 5 uL/min An immobilization level of about 8000 Response Units was achieved. Gadd45β, which is an intrinsically acidic protein with a pI of about 4.5, was immobilized at pH 3.5 (6000 RU immobilization levels) on a separate channel. The residual reactive groups on both the Gadd45β and MKK7KD channels were finally inactivated by treatment with ethanolamine. On another channel the same procedure of activation with EDC/NHS and inactivation with ethanolamine was performed. […]

CaCO2 = CaCO2 assays; format: in vitro ADME; conditions: data not shown

IC50 [1]: 10.1 to 4900 nM
Structure (SMILES): NC(=O)[C@@H](Cc1ccccc1)NC(=O)[C@@H](Cc1c[nH]cn1)NC(=O)[C@@H](CC(=O)O)NC(=O)[C@@H](Cc1ccc(O)cc1)NC(=O)OCc1ccccc1 [Compound 1, Z-Tyr-Asp-His-Phe-NH2] (Cbz-[dY][dD][dH][dF]-NH2)

Structure (SMILES): N=C(N)NCCC[C@@H](NC(=O)[C@@H](CCC(=O)O)NC(=O)[C@@H](Cc1ccc(O)cc1)NC(=O)OCc1ccccc1)C(=O)N[C@H](Cc1ccccc1)C(N)=O [Compound 9, Z-D-Tyr-D-Glu-D-Arg-D-Phe-NH2] (Cbz-[dY][dE][dR][dF]-NH2)
solubility (Solubility): high solubility

Structure (SMILES): CC(=O)N[C@H](Cc1ccc(O)cc1)C(=O)N[C@H](CCCNC(=N)N)C(=O)N[C@H](Cc1ccccc1)C(N)=O [Compound 17, Ac-D-Tyr-D-Arg-D-Phe-NH2] (Ac-[dY]-[dR]-[dF]-NH2)
effect on preformed Gadd45β/MKK7KD complex (Gadd45β/MKK7 complex; injected at 10 nM or 100 nM during dissociation phase): induced a rapid dissociation of the Gadd45β/MKK7KD complex
binding to preformed Gadd45β/MKK7KD complex (Gadd45β/MKK7 complex; injected at higher concentrations (e.g. 1 μM)): dose-response binding and dissociation curves were recorded

Structure (SMILES): CC(=O)N[C@H](Cc1ccc(O)cc1)C(=O)N[C@H](CCC(=O)O)C(=O)N[C@H](CCCNC(=N)N)C(=O)N[C@H](Cc1ccccc1)C(N)=O [DTP2, Acetyl-(D-Tyr)-(D-Glu)-(D-Arg)-(D-Phe)-NH2] (Ac-[dY][dE][dR][dF]-NH2)
cellular permeability (CaCO2): low cellular permeability
